# Legend:
# D-galactose treated mice = assay: Loss of whiskers induced by D-galactose treatment; type: in vivo, male ICR mice; settings: D-galactose 150 mg/kg daily with or without 120 mg/kg oral extract, 8 weeks; N=12 mice/group
# Method: Chronic exposure to D-galactose is a widely studied aging model that causes shortened lifespan in Drosophila and housefly (Jordens et al 1999; Cui et al 2004), and brings about spatial memory deficit, degeneration in the hippocampus and increased oxidative damage in a D-galactose-induced accelerated-aging model of the mouse (Cui et al 2006). […] In the present study, this D-galactose model was applied to 10 week old male ICR mice (n=8-12 per group). The mice were administered daily with 150 mg/kg D-galactose by subcutaneous injection, accompanied by either daily oral administration of the vehicle (0.9% NaCl) in the D-galactose treated control group (“D-gal”), or daily oral administration of one of the BYPA, BYP, BYA, BPA, YPA, BY, BP and YP herbal extracts (120 mg/kg), for an exposure period of 8 weeks. […] The resultant levels of accelerated aging in the D-gal group, the various herbal extract-treatment groups, and the Veh group were assessed at the end of the 8-week exposure period based on five criteria: (i) body weight; (ii) deficit in spatial memory in the Y-maze test; (iii) levels of the pro-inflammatory cytokine TNF-alpha in the brain; (iv) levels of the pro-inflammatory cytokine IL-6 in the brain; and (v) levels of the oxidative stress marker MDA in the brain. […]
# [1] = test system: D-galactose treated animals; settings: cited from earlier work
# mice [2] = assay: Locomotor activity test; type: in vivo, male ICR mice; settings: 3 mg/kg diazepam oral; p<0.001 vs vehicle
# Method: Locomotor activity test. Following the elevated plus-maze and holeboard tests, the Veh-treated mice, DZ-treated mice and variously herbal extract-treated mice were assessed for locomotor activity by means of the ZIL-2 apparatus (Beijing Institute of Materia Medica). The test apparatus, with dimensions of 60 cm×60 cm×12 cm, consisted of a transparent plastic cylindrical box equipped with three evenly spaced infrared beams with photodetectors. The number of transitions made across the infrared beams was recorded automatically over a period of 5 minutes. An increase or decrease in the number of transitions indicated a corresponding increase or decrease in the level of locomotor activity (Hui et al, 2002).
# mice [3] = assay: Rotarod test; type: in vivo, male ICR mice; settings: diazepam at 1 or 3 mg/kg oral; p<0.001 vs vehicle
# Method: Rotarod test. Mice randomly separated into groups (n=15−20/group) were orally administered 35 minutes prior to the rotarod test with vehicle (“Veh”, viz. 0.9% NaCl), 1 or 3 mg/kg DZ, or 120 mg/kg of one of the one-, two-, three- or four-herb extracts. The rotarod test for muscle coordination was performed using a custom-built apparatus consisted of a cylinder (2.5 cm diameter) with a textured surface placed 0.5 m above the ground. Prior to oral Veh, DZ or herbal extract administration, the mice were first trained to stay for 2 min on the rotarod revolving at 16 rpm. In the test, the effect of Veh, DZ or herbal extract treatment was examined by placing the mouse on the rotarod and recording the length of time it managed to stay on the rotarod, with cut-off set at 2 min.
# mice [4] = assay: Step-through passive avoidance test; type: in vivo, male ICR mice; settings: diazepam at 1 or 3 mg/kg oral; p<0.001 vs vehicle
# Method: Step-through passive avoidance test. Mice randomly separated into groups (n=15−20/group) were orally administered with vehicle (“Veh”, viz. 0.9% NaCl), 1 or 3 mg/kg DZ, or 120 mg/kg of one of the one-, two-, three- or four-herb extracts 35 minutes prior to training trials. The apparatus consisted of a two-chamber box (from Chinese Academy of Chinese Medical Science, Beijing) with one of the chambers being opaque (darkened) and the other transparent (lighted). In the training trials, each mouse was placed into the lighted chamber, and the door connecting the lighted and darkened chambers was opened 10 seconds later. […] In the actual test, after the mouse entered the darkened chamber, the door was closed and a 2-second electric foot shock of 0.4 mA was delivered through the grid floor. Ten seconds later the mouse was transferred from the darkened chamber back to its home cage. After an interval of 24 hours, it was returned to the lighted chamber. The door to the darkened chamber was opened 10 seconds later, and the time taken for the mouse to enter the darkened chamber was recorded as the ‘step-through latency’, with cut-off set at 300 seconds. A significant decrease in step-through latency observed with any group of animals compared to Veh-treated controls was indicative of impaired […] in the form of anterograde amnesia (Nazari-Serenj eh et al, 2011).
structure (smiles),measurement,setting,value
"O=C[C@H](O)[C@@H](O)[C@@H](O)[C@H](O)CO [D-gal, D-galactose]",Loss of whiskers (% mice) 0 (no loss of whiskers),D-galactose treated mice,50 % mice
same,Loss of whiskers (% mice) + (loss of whiskers),D-galactose treated mice,50 % mice
O=C(O)CCCC[C@@H]1CCSS1 [R-α-lipoic acid],cognitive dysfunction and neurodegeneration,"[1]; 100 mg/kg i.p., Cui 2006",can ameliorate
C[C@H]1[C@H](C)CC[C@]2(C(=O)O)CC[C@]3(C)C(=CC[C@@H]4[C@@]5(C)C[C@@H](O)[C@H](O)[C@@](C)(CO)[C@@H]5CC[C@]43C)[C@H]12 [asiatic acid],"elevated levels of brain ROS, TNF-alpha and IL-6","[1]; oral, 10 or 20 mg/kg, Chao et al 2015",can reduce
"CN1C(=O)CN=C(c2ccccc2)c2cc(Cl)ccc21 [diazepam, Diazepam]",locomotor activity,mice [2],significant reduction
same,time of stay on the moving rotarod (muscle coordination),mice [3],significant reduction
same,step-through latency (anterograde amnesia),mice [4],significant anterograde amnesia
CC(C)=CCC[C@](C)(O[C@@H]1O[C@H](CO)[C@@H](O)[C@H](O)[C@H]1O)[C@H]1CC[C@]2(C)[C@@H]1[C@H](O)C[C@@H]1[C@@]3(C)CC[C@H](O)C(C)(C)[C@@H]3[C@@H](O[C@@H]3O[C@H](CO)[C@@H](O)[C@H](O)[C@H]3O)C[C@]12C [ginsenoside Rg1],cognitive impairment and hippocampus senescence,"[1]; 20 mg/kg i.p., Zhu et al 2014",can prevent

# Reference: patent publication US10722547B2, “Compositions of medicinal plants for reducing the effects of aging, prevention and treatment of age-related neurodegenerative diseases, and treatment of anxiety and sleep disorders” (PharmacoGenetics Limited, priority 2016, dated 2020)
